{"source": "the NIST ThermoML archive (doi:10.1021/je0602263)", "assay": "xn = mol fraction of the nth substance listed", "conditions": "298.15 K, 101 kPa, Liquid", "note": "± gives the expanded uncertainty stated by the source."}
{"smiles": "CCCCCCC", "note": "[heptane] + COC(=O)OC", "values": [{"measurement": "mass density", "setting": "x2 = 0", "result": "680.52 ± 0.63", "unit": "kg/m3"}]}
{"smiles": "COC(=O)OC", "note": "[dimethyl carbonate] + CCCCCCC", "values": [{"measurement": "mass density", "setting": "x1 = 0.0501", "result": "690.16 ± 0.61", "unit": "kg/m3"}, {"measurement": "mass density", "setting": "x1 = 0.0999", "result": "700.47 ± 0.6", "unit": "kg/m3"}, {"measurement": "mass density", "setting": "x1 = 0.15", "result": "711.7 ± 0.58", "unit": "kg/m3"}, {"measurement": "mass density", "setting": "x1 = 0.1998", "result": "723.65 ± 0.56", "unit": "kg/m3"}, {"measurement": "mass density", "setting": "x1 = 0.2501", "result": "736.28 ± 0.55", "unit": "kg/m3"}, {"measurement": "mass density", "setting": "x1 = 0.2999", "result": "749.59 ± 0.53", "unit": "kg/m3"}, {"measurement": "mass density", "setting": "x1 = 0.3501", "result": "763.95 ± 0.51", "unit": "kg/m3"}, {"measurement": "mass density", "setting": "x1 = 0.4", "result": "779.05 ± 0.49", "unit": "kg/m3"}, {"measurement": "mass density", "setting": "x1 = 0.4499", "result": "795.07 ± 0.48", "unit": "kg/m3"}, {"measurement": "mass density", "setting": "x1 = 0.5001", "result": "812.18 ± 0.46", "unit": "kg/m3"}, {"measurement": "mass density", "setting": "x1 = 0.5498", "result": "830.25 ± 0.43", "unit": "kg/m3"}, {"measurement": "mass density", "setting": "x1 = 0.6", "result": "849.67 ± 0.4", "unit": "kg/m3"}, {"measurement": "mass density", "setting": "x1 = 0.6499", "result": "870.23 ± 0.37", "unit": "kg/m3"}, {"measurement": "mass density", "setting": "x1 = 0.7001", "result": "892.23 ± 0.34", "unit": "kg/m3"}, {"measurement": "mass density", "setting": "x1 = 0.75", "result": "915.72 ± 0.3", "unit": "kg/m3"}, {"measurement": "mass density", "setting": "x1 = 0.8", "result": "941.09 ± 0.26", "unit": "kg/m3"}, {"measurement": "mass density", "setting": "x1 = 0.8501", "result": "968.3 ± 0.22", "unit": "kg/m3"}, {"measurement": "mass density", "setting": "x1 = 0.9001", "result": "997.61 ± 0.18", "unit": "kg/m3"}, {"measurement": "mass density", "setting": "x1 = 0.9501", "result": "1029.09 ± 0.21", "unit": "kg/m3"}, {"measurement": "mass density", "setting": "x1 = 1", "result": "1063.19 ± 0.25", "unit": "kg/m3"}]}
{"smiles": "COC(=O)OC", "note": "[dimethyl carbonate] + Cc1ccccc1", "values": [{"measurement": "mass density", "setting": "x1 = 0.0498", "result": "869.9 ± 0.34", "unit": "kg/m3"}, {"measurement": "mass density", "setting": "x1 = 0.0998", "result": "877.68 ± 0.33", "unit": "kg/m3"}, {"measurement": "mass density", "setting": "x1 = 0.15", "result": "885.75 ± 0.32", "unit": "kg/m3"}, {"measurement": "mass density", "setting": "x1 = 0.1999", "result": "893.96 ± 0.31", "unit": "kg/m3"}, {"measurement": "mass density", "setting": "x1 = 0.2498", "result": "902.39 ± 0.3", "unit": "kg/m3"}, {"measurement": "mass density", "setting": "x1 = 0.2999", "result": "911.1 ± 0.29", "unit": "kg/m3"}, {"measurement": "mass density", "setting": "x1 = 0.3498", "result": "919.98 ± 0.28", "unit": "kg/m3"}, {"measurement": "mass density", "setting": "x1 = 0.4", "result": "929.22 ± 0.27", "unit": "kg/m3"}, {"measurement": "mass density", "setting": "x1 = 0.4498", "result": "938.57 ± 0.26", "unit": "kg/m3"}, {"measurement": "mass density", "setting": "x1 = 0.4999", "result": "948.26 ± 0.25", "unit": "kg/m3"}, {"measurement": "mass density", "setting": "x1 = 0.5499", "result": "958.27 ± 0.24", "unit": "kg/m3"}, {"measurement": "mass density", "setting": "x1 = 0.5999", "result": "968.51 ± 0.22", "unit": "kg/m3"}, {"measurement": "mass density", "setting": "x1 = 0.65", "result": "979.06 ± 0.21", "unit": "kg/m3"}, {"measurement": "mass density", "setting": "x1 = 0.7", "result": "989.94 ± 0.19", "unit": "kg/m3"}, {"measurement": "mass density", "setting": "x1 = 0.7499", "result": "1001.14 ± 0.18", "unit": "kg/m3"}, {"measurement": "mass density", "setting": "x1 = 0.8001", "result": "1012.77 ± 0.19", "unit": "kg/m3"}, {"measurement": "mass density", "setting": "x1 = 0.8501", "result": "1024.73 ± 0.2", "unit": "kg/m3"}, {"measurement": "mass density", "setting": "x1 = 0.8998", "result": "1037.03 ± 0.22", "unit": "kg/m3"}, {"measurement": "mass density", "setting": "x1 = 0.9502", "result": "1049.89 ± 0.23", "unit": "kg/m3"}, {"measurement": "mass density", "setting": "x1 = 1", "result": "1063.19 ± 0.25", "unit": "kg/m3"}]}
{"smiles": "c1ccccc1", "note": "[benzene] + COC(=O)OC", "values": [{"measurement": "mass density", "setting": "x2 = 0", "result": "873.56 ± 0.34", "unit": "kg/m3"}]}
{"smiles": "CC(C)CC(C)(C)C", "note": "[2,2,4-trimethylpentane] + COC(=O)OC", "values": [{"measurement": "mass density", "setting": "x2 = 0", "result": "688.04 ± 0.62", "unit": "kg/m3"}]}
{"smiles": "COC(=O)OC", "note": "[dimethyl carbonate] + c1ccccc1", "values": [{"measurement": "mass density", "setting": "x1 = 0.0499", "result": "882 ± 0.32", "unit": "kg/m3"}, {"measurement": "mass density", "setting": "x1 = 0.1", "result": "890.57 ± 0.31", "unit": "kg/m3"}, {"measurement": "mass density", "setting": "x1 = 0.15", "result": "899.18 ± 0.3", "unit": "kg/m3"}, {"measurement": "mass density", "setting": "x1 = 0.2001", "result": "907.93 ± 0.29", "unit": "kg/m3"}, {"measurement": "mass density", "setting": "x1 = 0.2499", "result": "916.61 ± 0.28", "unit": "kg/m3"}, {"measurement": "mass density", "setting": "x1 = 0.3", "result": "925.59 ± 0.27", "unit": "kg/m3"}, {"measurement": "mass density", "setting": "x1 = 0.3498", "result": "934.53 ± 0.26", "unit": "kg/m3"}, {"measurement": "mass density", "setting": "x1 = 0.4", "result": "943.7 ± 0.25", "unit": "kg/m3"}, {"measurement": "mass density", "setting": "x1 = 0.45", "result": "952.89 ± 0.24", "unit": "kg/m3"}, {"measurement": "mass density", "setting": "x1 = 0.5001", "result": "962.25 ± 0.23", "unit": "kg/m3"}, {"measurement": "mass density", "setting": "x1 = 0.55", "result": "971.69 ± 0.22", "unit": "kg/m3"}, {"measurement": "mass density", "setting": "x1 = 0.6", "result": "981.28 ± 0.2", "unit": "kg/m3"}, {"measurement": "mass density", "setting": "x1 = 0.6499", "result": "990.96 ± 0.19", "unit": "kg/m3"}, {"measurement": "mass density", "setting": "x1 = 0.7001", "result": "1000.84 ± 0.18", "unit": "kg/m3"}, {"measurement": "mass density", "setting": "x1 = 0.7501", "result": "1010.88 ± 0.19", "unit": "kg/m3"}, {"measurement": "mass density", "setting": "x1 = 0.8001", "result": "1021.01 ± 0.2", "unit": "kg/m3"}, {"measurement": "mass density", "setting": "x1 = 0.8498", "result": "1031.36 ± 0.21", "unit": "kg/m3"}, {"measurement": "mass density", "setting": "x1 = 0.8999", "result": "1041.69 ± 0.22", "unit": "kg/m3"}, {"measurement": "mass density", "setting": "x1 = 0.9501", "result": "1052.35 ± 0.24", "unit": "kg/m3"}, {"measurement": "mass density", "setting": "x1 = 1", "result": "1063.19 ± 0.25", "unit": "kg/m3"}]}
{"smiles": "COC(=O)OC", "note": "[dimethyl carbonate] + CC(C)CC(C)(C)C", "values": [{"measurement": "mass density", "setting": "x1 = 0.0497", "result": "696.81 ± 0.6", "unit": "kg/m3"}, {"measurement": "mass density", "setting": "x1 = 0.1", "result": "706.22 ± 0.59", "unit": "kg/m3"}, {"measurement": "mass density", "setting": "x1 = 0.15", "result": "716.12 ± 0.57", "unit": "kg/m3"}, {"measurement": "mass density", "setting": "x1 = 0.2001", "result": "726.95 ± 0.56", "unit": "kg/m3"}, {"measurement": "mass density", "setting": "x1 = 0.2499", "result": "738.38 ± 0.54", "unit": "kg/m3"}, {"measurement": "mass density", "setting": "x1 = 0.2998", "result": "750.67 ± 0.53", "unit": "kg/m3"}, {"measurement": "mass density", "setting": "x1 = 0.3498", "result": "763.75 ± 0.51", "unit": "kg/m3"}, {"measurement": "mass density", "setting": "x1 = 0.4004", "result": "777.96 ± 0.49", "unit": "kg/m3"}, {"measurement": "mass density", "setting": "x1 = 0.4498", "result": "792.89 ± 0.48", "unit": "kg/m3"}, {"measurement": "mass density", "setting": "x1 = 0.5002", "result": "809.29 ± 0.46", "unit": "kg/m3"}, {"measurement": "mass density", "setting": "x1 = 0.5499", "result": "826.46 ± 0.44", "unit": "kg/m3"}, {"measurement": "mass density", "setting": "x1 = 0.5998", "result": "845.2 ± 0.41", "unit": "kg/m3"}, {"measurement": "mass density", "setting": "x1 = 0.6502", "result": "865.43 ± 0.38", "unit": "kg/m3"}, {"measurement": "mass density", "setting": "x1 = 0.7", "result": "887.02 ± 0.34", "unit": "kg/m3"}, {"measurement": "mass density", "setting": "x1 = 0.75", "result": "910.31 ± 0.31", "unit": "kg/m3"}, {"measurement": "mass density", "setting": "x1 = 0.8", "result": "935.94 ± 0.27", "unit": "kg/m3"}, {"measurement": "mass density", "setting": "x1 = 0.8499", "result": "963.69 ± 0.23", "unit": "kg/m3"}, {"measurement": "mass density", "setting": "x1 = 0.8999", "result": "993.77 ± 0.19", "unit": "kg/m3"}, {"measurement": "mass density", "setting": "x1 = 0.9498", "result": "1026.79 ± 0.21", "unit": "kg/m3"}, {"measurement": "mass density", "setting": "x1 = 1", "result": "1063.19 ± 0.25", "unit": "kg/m3"}]}
{"smiles": "Cc1ccccc1", "note": "[toluene] + COC(=O)OC", "values": [{"measurement": "mass density", "setting": "x2 = 0", "result": "862.5 ± 0.35", "unit": "kg/m3"}]}
